According to US11766443B2, “Cyclopentathiophene carboxamide derivatives as platelet activating factor receptor antagonists” (Boehringer Ingelheim International GmbH, priority 2021, dated 2023):
Values after ≈ are worked out from the molar mass of the structure shown.

How the values were obtained:
human PAFR = target: T1, human PAFR (Homo sapiens, UniProt P25105); assay: cellular HTRF IP1 endpoint assay: inhibition of PAFR activation by PAF C-16 ligand; type: cell-based; settings: HEK293 cells overexpressing human PAFR; PAF ligand 11 nM
T1 construct: expressed in transfected cells; host or cells: HEK293
Experimental: The ability of compounds of formula (I.0) to inhibit the activation of the PAF receptor (PAFR) by the PAF C-16 ligand (PAF) is determined using the following cellular HTRF IP1 assay (IP1 Gq assay kit from Cisbio, Cat. no.: 62IP1APEJ) in assay buffer (1×HBSS, 20 mM Hepes, pH 7.4, 50 mM LiCl and containing 0.1% (w/v) BSA):
HEK293 cells overexpressing human PAFR (produced in-house) are seeded into a Poly-D-Lysine coated 384 well white cell culture microtiter assay plate with lid (15.000 cells per well). Subsequently, the plates are incubated over night at 37° C./5% CO2. On the next day, cells are being washed and subsequently, various concentrations of the test compounds (compounds in 100% DMSO; final concentration of DMSO in wells is 1%) are added to the assay plate via Echo 555 acoustic liquid handler. Plates are then incubated with lid for 90 minutes at 37° C./5% CO2. Thereafter, PAF ligand (Cayman Chemical Company, Item no.: 60900) is added at a final concentration of 11 nM. Plates are then incubated with lid for 60 minutes at 37° C./5% CO2. Then, 5 μl per well of Anti-IP1-Anti body-Cryptate solution and 5 μL per well of IP1-d2 solution are added to all wells of the plate and the plate is incubated for another 60 minutes light protected at room temperature. The emissions at 620 nm and 665 nm (Excitation wavelength: 320 nm) are measured using an Envision Reader (PerkinElmer).

[1] = aqueous solubility in buffer (from DMSO stock, 24 h shaking, LC-UV); settings: pH 2.2, aqueous buffer, kinetic from dmso stock
Experimental: The aqueous solubility of the test compound is determined by comparing the amount dissolved in buffer to the amount in an ACN/water (1/1) solution. Starting from a 10 mM DMSO stock solution aliquots are diluted with ACN/water (1/1) or buffer, respectively. After 24 h of shaking, the solutions are filtrated and analyzed by LC-UV. The amount dissolved in buffer is compared to the amount in the ACN solution.
Solubility will usually be measured from 0.001 to 0.125 mg/mL at a DMSO concentration of 2.5%. If more than 90% of the compound is dissolved in buffer, the value is marked with “>”.

T1 sequence (P25105 whole entry): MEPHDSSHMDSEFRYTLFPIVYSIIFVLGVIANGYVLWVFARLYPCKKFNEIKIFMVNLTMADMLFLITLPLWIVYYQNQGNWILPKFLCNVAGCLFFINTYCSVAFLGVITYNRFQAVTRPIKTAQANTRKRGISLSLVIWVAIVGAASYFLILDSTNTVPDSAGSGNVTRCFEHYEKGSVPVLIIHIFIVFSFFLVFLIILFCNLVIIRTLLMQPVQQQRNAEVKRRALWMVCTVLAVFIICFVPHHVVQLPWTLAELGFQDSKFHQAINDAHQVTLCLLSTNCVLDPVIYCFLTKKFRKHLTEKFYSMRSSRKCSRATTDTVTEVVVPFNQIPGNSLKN

Row | IC50 (human PAFR) | solubility at 24 h [1] | SMILES
1 | 3.6 nM | 130 µg/mL (≈ 233 µM) | Cc1nnc2n1-c1sc3c(c1[C@H](c1ccccc1Cl)NC2)C[C@H](C(=O)NCc1ccc(C(F)(F)F)nc1)C3 [Example 7]
2 | 281 nM | 88 µg/mL (≈ 158 µM) | Cc1nnc2n1-c1sc3c(c1[C@@H](c1ccccc1Cl)NC2)C[C@H](C(=O)NCc1ccc(C(F)(F)F)cc1)C3 [Example 13]
3 | 0.4 nM | 109 µg/mL (≈ 195 µM) | Cc1nnc2n1-c1sc3c(c1[C@H](c1ccccc1Cl)NC2)C[C@H](C(=O)NCc1ccc(C(F)(F)F)cc1)C3 [Example 14]
4 | 1.7 nM | > 113 µg/mL | Cc1nnc2n1-c1sc3c(c1[C@H](c1ccccc1Cl)NC2)C[C@H](C(=O)NCC1CC1)C3 [Example 15]
5 | 4.5 nM | > 128 µg/mL | Cc1nnc2n1-c1sc3c(c1[C@H](c1ccccc1Cl)NC2)C[C@H](C(=O)N[C@@H](C)CF)C3 [Example 20]
6 | 1.3 nM | > 114 µg/mL | Cc1nnc2n1-c1sc3c(c1[C@H](c1ccccc1Cl)NC2)C[C@H](C(=O)NC1CCC(F)(F)CC1)C3 [Example 23]
7 | 2 nM | > 105 µg/mL | Cc1nnc2n1-c1sc3c(c1[C@H](c1ccccc1Cl)NC2)C[C@H](C(=O)N1CC(C)(C)C1)C3 [Example 24]
8 | 1.1 nM | > 132 µg/mL | Cc1nnc2n1-c1sc3c(c1[C@H](c1ccccc1Cl)NC2)C[C@H](C(=O)NCc1ccccc1)C3 [Example 31]
9 | 34 nM | > 139 µg/mL | Cc1nnc2n1-c1sc3c(c1[C@H](c1ccccc1Cl)NC2)C[C@H](C(=O)N1CCC1)C3 [Example 32]
10 | 2.8 nM | > 139 µg/mL | Cc1nnc2n1-c1sc3c(c1[C@H](c1ccccc1Cl)NC2)C[C@H](C(=O)NC(C)(C)CO)C3 [Example 33]
11 | 2.1 nM | > 126 µg/mL | Cc1nnc2n1-c1sc3c(c1[C@H](c1ccccc1Cl)NC2)C[C@H](C(=O)N(C)Cc1ccccc1)C3 [Example 34]
12 | 3.8 nM | 106 µg/mL (≈ 190 µM) | Cc1nnc2n1-c1sc3c(c1[C@H](c1ccccc1Cl)NC2)C[C@H](C(=O)NCc1cccc(C(F)(F)F)n1)C3 [Example 35]
13 | 3 nM | 95 µg/mL (≈ 170 µM) | Cc1nnc2n1-c1sc3c(c1[C@H](c1ccccc1Cl)NC2)C[C@H](C(=O)NCc1ncccc1C(F)(F)F)C3 [Example 36]
14 | 2.9 nM | 100 µg/mL (≈ 179 µM) | Cc1nnc2n1-c1sc3c(c1[C@H](c1ccccc1Cl)NC2)C[C@H](C(=O)NCc1cc(C(F)(F)F)ccn1)C3 [Example 37]
15 | 1.4 nM | 108 µg/mL (≈ 193 µM) | Cc1nnc2n1-c1sc3c(c1[C@H](c1ccccc1Cl)NC2)C[C@H](C(=O)NCc1ccc(C(F)(F)F)cn1)C3 [Example 38]
16 | 11 nM | > 119 µg/mL | COc1ccc(CNC(=O)[C@@H]2Cc3sc4c(c3C2)[C@H](c2ccccc2Cl)NCc2nnc(C)n2-4)cn1 [Example 41]
17 | 2.6 nM | 104 µg/mL (≈ 186 µM) | Cc1nnc2n1-c1sc3c(c1[C@H](c1ccccc1Cl)NC2)C[C@H](C(=O)NCc1cncc(C(F)(F)F)c1)C3 [Example 43]
18 | 41 nM | > 112 µg/mL | Cc1nnc2n1-c1sc3c(c1[C@H](c1ccccc1Cl)NC2)C[C@H](C(=O)NCc1ccnnc1)C3 [Example 44]
19 | 6.3 nM | 112 µg/mL (≈ 200 µM) | Cc1nnc2n1-c1sc3c(c1[C@H](c1ccccc1Cl)NC2)C[C@H](C(=O)NCc1cnc(C(F)(F)F)nc1)C3 [Example 46]
20 | 15 nM | > 128 µg/mL | Cc1ncsc1CNC(=O)[C@@H]1Cc2sc3c(c2C1)[C@H](c1ccccc1Cl)NCc1nnc(C)n1-3 [Example 48]
21 | 1.9 nM | 101 µg/mL (≈ 192 µM) | Cc1nnc2n1-c1sc3c(c1[C@H](c1ccccc1Cl)NC2)C[C@H](C(=O)NCc1ccc(Cl)cn1)C3 [Example 49]
22 | 0.5 nM | 98 µg/mL (≈ 198 µM) | CCC12CC(NC(=O)[C@@H]3Cc4sc5c(c4C3)[C@H](c3ccccc3Cl)NCc3nnc(C)n3-5)(C1)C2 [Example 50]
23 | 2.2 nM | > 116 µg/mL | Cc1nnc2n1-c1sc3c(c1[C@H](c1ccccc1Cl)NC2)C[C@H](C(=O)NC12CC(C1)C2)C3 [Example 51]
24 | 11 nM | > 147 µg/mL | Cc1nnc2n1-c1sc3c(c1C(c1ccccc1Cl)NC2)C[C@H](C(=O)NC(C)(C)CO)C3 (stereo partly drawn) [Example 65, (13S)-9-(2-Chlorophenyl)-N-(1-hydroxy-2-methylpropan-2-yl)-3-methyl-16-thia-2,4,5,8-tetraazatetracyclo-[8.6.0.0^2,6.0^11,15]hexadeca-1(10),3,5,11(15)-tetraene-13-carboxamide]

Second part, the compound before the results:

Row | SMILES | IC50 (human PAFR) | solubility at 24 h [1]
25 | Cc1nnc2n1-c1sc3c(c1[C@@H](c1ccccc1Cl)NC2)C[C@H](C(=O)NCCOC(F)(F)F)C3 [Example 8] | 55 nM | > 121 µg/mL
26 | Cc1nnc2n1-c1sc3c(c1[C@@H](c1ccccc1Cl)NC2)C[C@H](C(=O)NC1CCC1)C3 [Example 9] | 34 nM | > 105 µg/mL
27 | Cc1nnc2n1-c1sc3c(c1[C@H](c1ccccc1Cl)NC2)C[C@H](C(=O)NC1(c2ccc(Cl)cn2)CC1)C3 [Example 10] | 1.3 nM | > 140 µg/mL
28 | Cc1nnc2n1-c1sc3c(c1[C@@H](c1ccccc1Cl)NC2)C[C@H](C(=O)NCc1ccc(OC(F)F)nc1)C3 [Example 11] | 53 nM | 105 µg/mL (≈ 189 µM)
29 | Cc1nnc2n1-c1sc3c(c1[C@H](c1ccccc1Cl)NC2)C[C@H](C(=O)NCc1ccc(OC(F)F)nc1)C3 [Example 12] | 1.9 nM | > 129 µg/mL
30 | Cc1nnc2n1-c1sc3c(c1[C@H](c1ccccc1Cl)NC2)C[C@H](C(=O)N[C@@H]1CCC(F)(F)C1)C3 [Example 16] | 1.4 nM | > 118 µg/mL
31 | Cc1nnc2n1-c1sc3c(c1[C@H](c1ccccc1Cl)NC2)C[C@H](C(=O)N1CCC(F)(F)CC1)C3 [Example 18] | 3.1 nM | > 112 µg/mL
32 | Cc1nnc2n1-c1sc3c(c1[C@H](c1ccccc1Cl)NC2)C[C@H](C(=O)N1CC2(CCCO2)C1)C3 [Example 22] | 5.3 nM | > 112 µg/mL
33 | Cc1noc(C)c1NC(=O)[C@@H]1Cc2sc3c(c2C1)[C@H](c1ccccc1Cl)NCc1nnc(C)n1-3 [Example 25] | 4.3 nM | > 136 µg/mL
34 | Cc1nnc2n1-c1sc3c(c1[C@H](c1ccccc1Cl)NC2)C[C@H](C(=O)N1C[C@@H](C)O[C@@H](C)C1)C3 [Example 27] | 5.5 nM | > 133 µg/mL
35 | Cc1ncc2n1CCN(C(=O)[C@@H]1Cc3sc4c(c3C1)[C@H](c1ccccc1Cl)NCc1nnc(C)n1-4)C2 [Example 29] | 69 nM | > 110 µg/mL
36 | Cc1nnc2n1-c1sc3c(c1[C@H](c1ccccc1Cl)NC2)C[C@H](C(=O)N1CC2(CCOCC2)C1)C3 [Example 30] | 12 nM | 80 µg/mL (≈ 157 µM)
37 | Cc1nnc2n1-c1sc3c(c1[C@H](c1ccccc1Cl)NC2)C[C@H](C(=O)NCc1cscn1)C3 [Example 39] | 60 nM | > 110 µg/mL
38 | Cc1nnc2n1-c1sc3c(c1[C@H](c1ccccc1Cl)NC2)C[C@H](C(=O)NCc1nccs1)C3 [Example 40] | 83 nM | > 111 µg/mL
39 | Cc1nnc2n1-c1sc3c(c1[C@H](c1ccccc1Cl)NC2)C[C@H](C(=O)NCc1cncnc1)C3 [Example 42] | 138 nM | > 121 µg/mL
40 | Cc1nnc2n1-c1sc3c(c1[C@H](c1ccccc1Cl)NC2)C[C@H](C(=O)NCc1ccnc(C(F)(F)F)c1)C3 [Example 45] | 1.9 nM | > 140 µg/mL
41 | Cc1ncc(CNC(=O)[C@@H]2Cc3sc4c(c3C2)[C@H](c2ccccc2Cl)NCc2nnc(C)n2-4)s1 [Example 47] | 12 nM | > 115 µg/mL
42 | COc1ccc(Cl)c(C2NCc3nnc(C)n3-c3sc4c(c32)CC(C(=O)N2CCOCC2)C4)c1 (centres unmarked) [Example 62, 9-(2-Chloro-5-methoxyphenyl)-3-methyl-13-(morpholine-4-carbonyl)-16-thia-2,4,5,8-tetraazatetracyclo-[8.6.0.0^2,6.0^11,15]hexadeca-1(10),3,5,11(15)-tetraene] | 94 nM | > 118 µg/mL
43 | Cc1ccccc1[C@@H]1NCc2nnc(C)n2-c2sc3c(c21)C[C@H](C(=O)N1CCOCC1)C3 [Example 64, (9S,13S)-3-methyl-9-(2-methylphenyl)-13-(morpholine-4-carbonyl)-16-thia-2,4,5,8-tetraazatetracyclo[8.6.0.0^2,6.0^11,15]-hexadeca-1(10),3,5,11(15)-tetraene] | 210 nM | > 108 µg/mL
44 | CCc1nnc2n1-c1sc3c(c1C(c1ccccc1Cl)NC2)CC(C(=O)N1CCOCC1)C3 (centres unmarked) [Example 67] | 73 nM | > 121 µg/mL
45 | CCc1nnc2n1-c1sc3c(c1[C@@H](c1ccccc1Cl)NC2)C[C@H](C(=O)N1CCOCC1)C3 [Example 68] | > 999 nM | > 116 µg/mL
46 | CCc1nnc2n1-c1sc3c(c1[C@H](c1ccccc1Cl)NC2)C[C@H](C(=O)N1CCOCC1)C3 [Example 69] | 35 nM | > 121 µg/mL
